Data published in ChEMBL document CHEMBL3585344, “Thiazole-based aminopyrimidines and N-phenylpyrazolines as potent antimicrobial agents: synthesis and biological evaluation” (2014).
Values after ≈ are worked out from the molar mass of the structure shown.

Tests used:
Trichoderma viride [1] = assay: Antifungal activity against Trichoderma viride IAM 5061 after 72 hrs by microdilution method; assay type: functional; settings: IAM 5061, 72 h
Candida albicans [2] = assay: Fungicidal activity against Candida albicans ATCC 10231 isolated from human after 72 hrs by microdilution method; assay type: functional
Talaromyces funiculosus [3] = assay: Fungicidal activity against Penicillium funiculosum ATCC 36839 after 72 hrs by microdilution method; assay type: functional
Aspergillus ochraceus [4] = assay: Antifungal activity against Aspergillus ochraceus ATCC 12066 after 72 hrs by microdilution method; assay type: functional; settings: ATCC 12066, 72 h
Candida albicans [5] = assay: Antifungal activity against Candida albicans ATCC 10231 isolated from human after 72 hrs by microdilution method; assay type: functional; settings: ATCC 10231, 72 h
Trichoderma viride [6] = assay: Fungicidal activity against Trichoderma viride IAM 5061 after 72 hrs by microdilution method; assay type: functional
Penicillium ochrochloron [7] = assay: Antifungal activity against Penicillium ochrochloron ATCC 9112 after 72 hrs by microdilution method; assay type: functional; settings: ATCC 9112, 72 h
Aspergillus fumigatus [8] = assay: Fungicidal activity against Aspergillus fumigatus isolated from human after 72 hrs by microdilution method; assay type: functional
Penicillium ochrochloron [9] = assay: Fungicidal activity against Penicillium ochrochloron ATCC 9112 after 72 hrs by microdilution method; assay type: functional
Aspergillus niger [10] = assay: Fungicidal activity against Aspergillus niger ATCC 6275 after 72 hrs by microdilution method; assay type: functional
Aspergillus flavus [11] = assay: Fungicidal activity against Aspergillus flavus ATCC 9643 after 72 hrs by microdilution method; assay type: functional
Aspergillus niger [12] = assay: Antifungal activity against Aspergillus niger ATCC 6275 after 72 hrs by microdilution method; assay type: functional; settings: ATCC 6275, 72 h
Aspergillus flavus [13] = assay: Antifungal activity against Aspergillus flavus ATCC 9643 after 72 hrs by microdilution method; assay type: functional; settings: ATCC 9643, 72 h
Aspergillus versicolor [14] = assay: Fungicidal activity against Aspergillus versicolor ATCC 11730 after 72 hrs by microdilution method; assay type: functional
Aspergillus ochraceus [15] = assay: Fungicidal activity against Aspergillus ochraceus ATCC 12066 after 72 hrs by microdilution method; assay type: functional
Aspergillus versicolor [16] = assay: Antifungal activity against Aspergillus versicolor ATCC 11730 after 72 hrs by microdilution method; assay type: functional; settings: ATCC 11730, 72 h
Talaromyces funiculosus [17] = assay: Antifungal activity against Penicillium funiculosum ATCC 36839 after 72 hrs by microdilution method; assay type: functional; settings: ATCC 36839, 72 h
Aspergillus fumigatus [18] = assay: Antifungal activity against Aspergillus fumigatus isolated from human after 72 hrs by microdilution method; assay type: functional
Micrococcus flavus [19] = assay: Antibacterial activity against Micrococcus flavus ATCC 10240 after 24 hrs by microdilution method; assay type: functional; settings: ATCC 10240, 24 h
Staphylococcus aureus [20] = assay: Antibacterial activity against Staphylococcus aureus ATCC 6538 after 24 hrs by microdilution method; assay type: functional; settings: ATCC 6538, 24 h
Enterobacter cloacae [21] = assay: Antibacterial activity against Enterobacter cloacae ATCC 35030 isolated from human after 24 hrs by microdilution method; assay type: functional; settings: ATCC 35030, 24 h
Enterococcus faecalis [22] = assay: Antibacterial activity against Enterococcus faecalis ATCC 7080 isolated from human after 24 hrs by microdilution method; assay type: functional; settings: ATCC 7080, 24 h
Escherichia coli [23] = assay: Bactericidal activity against Escherichia coli ATCC 35210 after 72 hrs by microdilution method; assay type: functional
Pseudomonas aeruginosa [24] = assay: Bactericidal activity against Pseudomonas aeruginosa ATCC 27853 after 72 hrs by microdilution method; assay type: functional
Salmonella typhimurium [25] = assay: Antibacterial activity against Salmonella typhimurium ATCC 13311 after 24 hrs by microdilution method; assay type: functional, Salmonella enterica subsp. enterica serovar Typhimurium; settings: Salmonella enterica, ATCC 13311, 24 h
Enterococcus faecalis [26] = assay: Bactericidal activity against Enterococcus faecalis ATCC 7080 isolated from human after 72 hrs by microdilution method; assay type: functional
Pseudomonas aeruginosa [27] = assay: Antibacterial activity against Pseudomonas aeruginosa ATCC 27853 after 24 hrs by microdilution method; assay type: functional; settings: ATCC 27853, 24 h
Escherichia coli [28] = assay: Antibacterial activity against Escherichia coli ATCC 35210 after 24 hrs by microdilution method; assay type: functional; settings: ATCC 35210, 24 h
Salmonella typhimurium [29] = assay: Bactericidal activity against Salmonella typhimurium ATCC 13311 after 72 hrs by microdilution method; assay type: functional, Salmonella enterica subsp. enterica serovar Typhimurium
Enterobacter cloacae [30] = assay: Bactericidal activity against Enterobacter cloacae ATCC 35030 isolated from human after 72 hrs by microdilution method; assay type: functional
Bacillus cereus [31] = assay: Antibacterial activity against Bacillus cereus clinical isolate after 24 hrs by microdilution method; assay type: functional
Staphylococcus aureus [32] = assay: Bactericidal activity against Staphylococcus aureus ATCC 6538 after 72 hrs by microdilution method; assay type: functional
Bacillus cereus [33] = assay: Bactericidal activity against Bacillus cereus clinical isolate after 72 hrs by microdilution method; assay type: functional
Listeria monocytogenes [34] = assay: Antibacterial activity against Listeria monocytogenes NCTC 7973 after 24 hrs by microdilution method; assay type: functional; settings: NCTC 7973, 24 h
Micrococcus flavus [35] = assay: Bactericidal activity against Micrococcus flavus ATCC 10240 after 72 hrs by microdilution method; assay type: functional
Listeria monocytogenes [36] = assay: Bactericidal activity against Listeria monocytogenes NCTC 7973 after 72 hrs by microdilution method; assay type: functional

MIC (Trichoderma viride [1]) [µM]	MIC (Aspergillus ochraceus [4]) [µM]	MIC (Candida albicans [5]) [µM]	MIC (Penicillium ochrochloron [7]) [µM]	MIC (Aspergillus niger [12]) [µM]	MIC (Aspergillus versicolor [16]) [µM]	MIC (Talaromyces funiculosus [17]) [µM]	MIC (Aspergillus fumigatus [18]) [µM]	MIC (Micrococcus flavus [19]) [µM]	MIC (Staphylococcus aureus [20]) [µM]	MIC (Enterobacter cloacae [21]) [µM]	Compound	MFC99.5 (Candida albicans [2]) [×10⁻² umol/ml]	MFC99.5 (Talaromyces funiculosus [3]) [×10⁻² umol/ml]	MFC99.5 (Trichoderma viride [6]) [×10⁻² umol/ml]	MFC99.5 (Aspergillus fumigatus [8]) [×10⁻² umol/ml]	MFC99.5 (Penicillium ochrochloron [9]) [×10⁻² umol/ml]	MFC99.5 (Aspergillus niger [10]) [×10⁻² umol/ml]	MFC99.5 (Aspergillus versicolor [14]) [×10⁻² umol/ml]	MFC99.5 (Aspergillus ochraceus [15]) [×10⁻² umol/ml]	MBC99.5 (Escherichia coli [23]) [×10⁻² umol/ml]	further results
								86 (≈ 50 µg/mL)	172 (≈ 100 µg/mL)	43 (≈ 25 µg/mL)	CN[C@@H]1[C@H](O[C@H]2[C@H](O[C@H]3[C@H](O)[C@@H](O)[C@H](N=C(N)N)[C@@H](O)[C@@H]3N=C(N)N)O[C@@H](C)[C@]2(O)C=O)O[C@@H](CO)[C@H](O)[C@H]1O [STREPTOMYCIN]									34.4	MIC (Enterococcus faecalis [22]): 43 µM (≈ 25 µg/mL); MBC99.5 (Pseudomonas aeruginosa [24]): 34.4 ×10⁻² umol/ml; MIC (Salmonella typhimurium [25]): 172 µM (≈ 100 µg/mL); MBC99.5 (Enterococcus faecalis [26]): 8.6 ×10⁻² umol/ml; MIC (Pseudomonas aeruginosa [27]): 172 µM (≈ 100 µg/mL); MIC (Escherichia coli [28]): 172 µM (≈ 100 µg/mL); MBC99.5 (Salmonella typhimurium [29]): 34.4 ×10⁻² umol/ml; MBC99.5 (Enterobacter cloacae [30]): 8.6 ×10⁻² umol/ml; MIC (Bacillus cereus [31]): 43 µM (≈ 25 µg/mL); MBC99.5 (Staphylococcus aureus [32]): 34.4 ×10⁻² umol/ml; MBC99.5 (Bacillus cereus [33]): 8.6 ×10⁻² umol/ml; MIC (Listeria monocytogenes [34]): 258 µM (≈ 150 µg/mL); MBC99.5 (Micrococcus flavus [35]): 17.2 ×10⁻² umol/ml; MBC99.5 (Listeria monocytogenes [36]): 51.6 ×10⁻² umol/ml
126 (≈ 49.8 µg/mL)	126 (≈ 49.8 µg/mL)	253 (≈ 100 µg/mL)	253 (≈ 100 µg/mL)	253 (≈ 100 µg/mL)	126 (≈ 49.8 µg/mL)	253 (≈ 100 µg/mL)	126 (≈ 49.8 µg/mL)	126 (≈ 49.8 µg/mL)	126 (≈ 49.8 µg/mL)	126 (≈ 49.8 µg/mL)	Cc1nc(-c2ccccc2)sc1C1=NN(c2ccccc2)C(c2ccccc2)C1 (stereo not given)	30.4	32.2	25.3	15.2	32.2	32.2	15.2	20.2	17.7	MBC99.5 (Pseudomonas aeruginosa [24]): 25.3 ×10⁻² umol/ml; MIC (Salmonella typhimurium [25]): 202 µM (≈ 79.9 µg/mL); MIC (Pseudomonas aeruginosa [27]): 152 µM (≈ 60.1 µg/mL); MIC (Escherichia coli [28]): 101 µM (≈ 39.9 µg/mL); MBC99.5 (Salmonella typhimurium [29]): 25.3 ×10⁻² umol/ml; MBC99.5 (Enterobacter cloacae [30]): 17.7 ×10⁻² umol/ml; MIC (Bacillus cereus [31]): 152 µM (≈ 60.1 µg/mL); MBC99.5 (Staphylococcus aureus [32]): 20.2 ×10⁻² umol/ml; MBC99.5 (Bacillus cereus [33]): 30.4 ×10⁻² umol/ml; MIC (Listeria monocytogenes [34]): 76 µM (≈ 30.1 µg/mL); MBC99.5 (Micrococcus flavus [35]): 20.2 ×10⁻² umol/ml; MBC99.5 (Listeria monocytogenes [36]): 10.1 ×10⁻² umol/ml
287 (≈ 100 µg/mL)	143 (≈ 49.8 µg/mL)	172 (≈ 59.9 µg/mL)	143 (≈ 49.8 µg/mL)	143 (≈ 49.8 µg/mL)	143 (≈ 49.8 µg/mL)	287 (≈ 100 µg/mL)	143 (≈ 49.8 µg/mL)	115 (≈ 40.1 µg/mL)	115 (≈ 40.1 µg/mL)	144 (≈ 50.2 µg/mL)	CNc1nc(C)c(C2=NN(c3ccccc3)C(c3ccccc3)C2)s1 (stereo not given)	23	40.2	40.2	23	28.7	28.7	23	17.2	20.1	MBC99.5 (Pseudomonas aeruginosa [24]): 45.9 ×10⁻² umol/ml; MIC (Salmonella typhimurium [25]): 172 µM (≈ 59.9 µg/mL); MIC (Pseudomonas aeruginosa [27]): 144 µM (≈ 50.2 µg/mL); MIC (Escherichia coli [28]): 172 µM (≈ 59.9 µg/mL); MBC99.5 (Salmonella typhimurium [29]): 28.7 ×10⁻² umol/ml; MBC99.5 (Enterobacter cloacae [30]): 20.1 ×10⁻² umol/ml; MIC (Bacillus cereus [31]): 230 µM (≈ 80.1 µg/mL); MBC99.5 (Staphylococcus aureus [32]): 20.1 ×10⁻² umol/ml; MBC99.5 (Bacillus cereus [33]): 28.7 ×10⁻² umol/ml; MIC (Listeria monocytogenes [34]): 57 µM (≈ 19.9 µg/mL); MBC99.5 (Micrococcus flavus [35]): 23 ×10⁻² umol/ml; MBC99.5 (Listeria monocytogenes [36]): 11.5 ×10⁻² umol/ml

Compound	MIC (Trichoderma viride [1]) [µM]	MIC (Aspergillus ochraceus [4]) [µM]	MIC (Candida albicans [5]) [µM]	MIC (Penicillium ochrochloron [7]) [µM]	MIC (Aspergillus niger [12]) [µM]	MIC (Aspergillus versicolor [16]) [µM]	MIC (Talaromyces funiculosus [17]) [µM]	MIC (Aspergillus fumigatus [18]) [µM]	MIC (Micrococcus flavus [19]) [µM]	MIC (Staphylococcus aureus [20]) [µM]	MIC (Enterobacter cloacae [21]) [µM]	MFC99.5 (Candida albicans [2]) [×10⁻² umol/ml]	MFC99.5 (Talaromyces funiculosus [3]) [×10⁻² umol/ml]	MFC99.5 (Trichoderma viride [6]) [×10⁻² umol/ml]	MFC99.5 (Aspergillus fumigatus [8]) [×10⁻² umol/ml]	MFC99.5 (Penicillium ochrochloron [9]) [×10⁻² umol/ml]	MFC99.5 (Aspergillus niger [10]) [×10⁻² umol/ml]	MFC99.5 (Aspergillus versicolor [14]) [×10⁻² umol/ml]	MFC99.5 (Aspergillus ochraceus [15]) [×10⁻² umol/ml]	MBC99.5 (Escherichia coli [23]) [×10⁻² umol/ml]	further results
CC(=O)N1CCN(c2ccc(OCC3COC(Cn4ccnc4)(c4ccc(Cl)cc4Cl)O3)cc2)CC1 (stereo not given) [KETOCONAZOLE]	4750 (≈ 2520 µg/mL)	380 (≈ 202 µg/mL)	376 (≈ 200 µg/mL)	3800 (≈ 2020 µg/mL)	380 (≈ 202 µg/mL)	2850 (≈ 1510 µg/mL)	380 (≈ 202 µg/mL)	380 (≈ 202 µg/mL)				94	95	570	95	380	95	380	95		MFC99.5 (Aspergillus flavus [11]): 380 ×10⁻² umol/ml; MIC (Aspergillus flavus [13]): 2850 µM (≈ 1510 µg/mL)
